Results: paper PMC3850926, “Evaluation of the adverse event profile and pharmacodynamics of toceranib phosphate administered to dogs with solid tumors at doses below the maximum tolerated dose” (BMC Veterinary Research, 2013)
Like-named read-outs stand apart in the source and are kept apart here.

How the values were obtained:
[1] = cited from earlier work
[2] = test system: dogs with a variety of tumors; design: method as in PMID 12855656; conditions: cited from earlier work
[3] = test system: KIT; conditions: dogs with MCT, 8 hours post drug administration; cited from earlier work
[4] = test system: dogs with solid tumors; assay: Assessment of adverse events (VCOG-CTCAE); format: in vivo, dog
Procedure: All dogs were placed on famotidine at 0.5-1 mg/kg once per day at study initiation and owners were instructed to administer the toceranib in the morning with food. […] Dogs were evaluated for AEs on days 0, 7, 14, and 30 of study, as well as at interim time points as needed. AEs were defined and graded according to the published VCOG-CTCAE criteria. Disease progression or signs and symptoms definitely related to disease were not considered AEs.

[5] = number of AEs, 40 dogs, 2.4-2.9 mg/kg EOD, 30 days

For `Cc1[nH]c(/C=C2\C(=O)Nc3ccc(F)cc32)c(C)c1C(=O)NCCN1CCCC1` [toceranib, Toceranib phosphate], the “dose proportionality of Cmax” value ([1]; healthy beagle dogs) is given as “proportional to doses ranging from 2.0 to 6.0 mg/kg”, the “time of maximum drug concentration (Tmax)” value ([1]; previous studies) is given as 5.3 to 9.3 h and the “time of Cmax post drug administration” value ([1]; prior studies) is given as 6 to 8 h. For the same molecule, the “complete responses, CR (number of dogs)” value ([2]; 2.5 mg/kg EOD, 16 dogs) was 4, the “objective response (number of dogs)” value ([2]; 2.5 mg/kg EOD, 16 dogs) was 6 dogs and the “objective response (percent)” value ([2]; 2.5 mg/kg EOD, 16 dogs) was 37.5%. The “partial responses, PR (number of dogs)” value ([2]; 2.5 mg/kg EOD, 16 dogs) was 2, the “stable disease, SD (number of dogs)” value ([2]; 2.5 mg/kg EOD, 16 dogs) was 5 dogs and the “CR (number of dogs)” value ([2]; 3.25 mg/kg EOD, 20 dogs) was 2. For the same molecule, the “PR (number of dogs)” value ([2]; 3.25 mg/kg EOD, 20 dogs) was 6, the “objective response (number of dogs)” value ([2]; 3.25 mg/kg EOD, 20 dogs) was 8 and the “lowest plasma concentration with intratumoral target modulation (downregulation of KIT and/or ERK phosphorylation)” value [3] was 30 ng/mL. For the same molecule, the “grade 3 or 4 GI adverse events” value ([4]; 2.4-2.9 mg/kg EOD) was “no grade 3 or 4 GI adverse events”, the “dogs with increased BUN without concomitant increase in creatinine” value ([4]; 6 had concurrent gastrointestinal upset) was 9 dogs and the “dogs with grade 1 anemia” value ([4]; 6 had mild anemia of chronic disease before treatment) was “Thirteen”. For the same molecule, the “clinical evidence of hepatotoxicity” value ([4]; 40 dogs, 30 days) was “no dogs”, the “dogs that developed grade 1 anorexia (number)” value ([4]; 40 dogs, 30 days) was “Thirteen” and the “dogs that developed grade 1 anorexia (percent)” value ([4]; 40 dogs, 30 days) was 32.5%. The “dogs that developed grade 1 diarrhea (number)” value ([4]; 40 dogs, 30 days) was “Fifteen”, the “dogs that developed grade 1 vomiting (number)” value ([4]; 40 dogs, 30 days) was “Eighteen” and the “dogs that developed grade 2 diarrhea” value ([4]; 40 dogs, 30 days) was “Six”. For the same molecule, the “dogs with grade 1 increases in AST” value ([4]; 40 dogs, 30 days) was “Five”, the “dogs with grade 1 thrombocytopenia” value ([4]; 40 dogs, 30 days) was 2 dogs and the “dogs with grade 2 anorexia” value ([4]; 40 dogs, 30 days) was 1 dogs. The “dogs with grade 2 colitis” value ([4]; 40 dogs, 30 days) was “two”, the “dogs with grade 2 vomiting” value ([4]; 40 dogs, 30 days) was 3 dogs and the “dogs with grade 3 hypertension” value ([4]; 40 dogs, 30 days) was 2 dogs. The “dogs with grade 3 lameness” value ([4]; 40 dogs, 30 days) was 1 dogs, the “dogs with mild-to-moderate lameness (grade 1–2)” value ([4]; 40 dogs, 30 days) was 10 dogs and the “dogs with more than one episode of grade 1 diarrhea” value ([4]; 40 dogs, 30 days) was 10 dogs. For the same molecule, the “dogs with more than one event of grade 1 vomiting” value ([4]; 40 dogs, 30 days) was 5 dogs, the “dogs with transient grade 1 elevations in ALT” value ([4]; 40 dogs, 30 days) was 7 dogs and the “dogs with grade 1 neutropenia (number)” value ([4]; after 1–3 weeks of therapy) was 20/40. The “share of AEs that were grade 1 or grade 2” value ([4]; all AEs of the study) was 86%, the “share of AEs that were grade 2” value ([4]; all AEs of the study) was 12% and the “dogs that developed hypertension (any grade)” value ([4]; blood pressure measured only in animals with signs) was 3 dogs. The “adverse event profile compared to the label dose of 3.25 mg/kg EOD” value ([4]; dog, in vivo) was “substantially reduced adverse event profile”, the “dogs with grade 3 AST elevation” value ([4]; end of study period) was 1 dogs and the “dogs with weight loss” value ([4]; grade 1 event) was 3 dogs. For the same molecule, the “dogs with lethargy (number)” value ([4]; grade 1 or 2, 40 dogs, 30 days) was 13 dogs, the “dogs with lethargy (percent)” value ([4]; grade 1 or 2, 40 dogs, 30 days) was 32.5% and the “dogs requiring a dose modification” value ([4]; initiated at 2.5 mg/kg) was “five”. For the same molecule, the “dogs requiring a dose modification” value ([4]; initiated at 2.75 mg/kg) was “three”, the “Alopecia, Grade 1” value [4, 5] was 1 and the “Anemia, Grade 1” value [4, 5] was 13. For the same molecule, the “Anorexia, Grade 1” value [4, 5] was 15, the “Anorexia, Grade 2” value [4, 5] was 1 and the “Colitis, Grade 2” value [4, 5] was 2. The “Constipation, Grade 1” value [4, 5] was 1, the “Cough, Grade 1” value [4, 5] was 4 and the “Dermatitis, Grade 1” value [4, 5] was 1. For the same molecule, the “Diarrhea, Grade 1” value [4, 5] was 34, the “Diarrhea, Grade 2” value [4, 5] was 6 and the “Epistaxis, Grade 1” value [4, 5] was 3. The “Fever, Grade 2” value [4, 5] was 1, the “Hand-foot syndrome, Grade 1” value [4, 5] was 1 and the “Hypertension, Grade 1” value [4, 5] was 1. The “Hypertension, Grade 3” value [4, 5] was 2, the “Hypopigmentation, Grade 1” value [4, 5] was 2 and the “Ileus, Grade 3” value [4, 5] was 1. For the same molecule, the “Increase ALP, Grade 1” value [4, 5] was 9, the “Increase ALP, Grade 2” value [4, 5] was 2 and the “Increase ALP, Grade 3” value [4, 5] was 1. For the same molecule, the “Increase ALT, Grade 1” value [4, 5] was 7, the “Increase ALT, Grade 3” value [4, 5] was 1 and the “Increase ALT, Grade 4” value [4, 5] was 1. For the same molecule, the “Increase AST, Grade 1” value [4, 5] was 5, the “Increase AST, Grade 3” value [4, 5] was 1 and the “Increase BUN, Grade 1” value [4, 5] was 9. The “Increase BUN, Grade 2” value [4, 5] was 1, the “Increase CK, Grade 1” value [4, 5] was 2 and the “Lameness, Grade 1” value [4, 5] was 6. For the same molecule, the “Lameness, Grade 2” value [4, 5] was 8, the “Lameness, Grade 3” value [4, 5] was 1 and the “Lethargy, Grade 1” value [4, 5] was 15. The “Lethargy, Grade 2” value [4, 5] was 2, the “Neutropenia, Grade 1” value [4, 5] was 20 and the “Neutropenia, Grade 2” value [4, 5] was 1. For the same molecule, the “Ocular discharge, Grade 1” value [4, 5] was 3, the “Pancreatitis, Grade 3” value [4, 5] was 1 and the “Panting, Grade 1” value [4, 5] was 3. For the same molecule, the “Protein losing nephropathy, Grade 1” value [4, 5] was 4, the “Pruritus, Grade 1” value [4, 5] was 1 and the “Thrombocytopenia, Grade 1” value [4, 5] was 2. For the same molecule, the “Vomiting, Grade 1” value [4, 5] was 23, the “Vomiting, Grade 2” value [4, 5] was 3 and the “Weight loss, Grade 1” value [4, 5] was 3. The “all adverse events, Grade 1 (total)” value [4, 5] was 188, the “all adverse events, Grade 2 (total)” value [4, 5] was 27 and the “all adverse events, Grade 3 (total)” value [4, 5] was 8. The “all adverse events, Grade 4 (total)” value [4, 5] was 1, the “lethargy, grade 1 episodes among the affected dogs” value ([4]; remainder grade 2) was 11 and the “dogs with depigmentation and thinning of the footpads in all 4 limbs” value ([4]; resolved after 1 week discontinuation) was “One”. The “weight loss, percent of initial recorded body weight” value ([4]; the 3 affected dogs) was 5-10%, the “dogs with dose changed (drug holiday and/or dose reduction), number” value ([4]; throughout the study period) was 8 dogs and the “dogs with dose changed (drug holiday and/or dose reduction), percent” value ([4]; throughout the study period) was 20%. For the same molecule, the “patients that developed protein losing nephropathy (PLN)” value ([4]; without an apparent cause) was 4 patients.
